Laboratory results from ChEMBL document CHEMBL4699637, “Glycosylated Phenols and an Unprecedented Diacid from the Saudi Plant Cissus rotundifolia” (J Nat Prod, 2020).
pEC50: −log10 of the molar value. Active and inactive are the calls of the source. The rule behind the calls is not given here.

Key:
Huh-7 = experiment: Activation of glucose transporter in human Huh-7 cells assessed as increase in glucose uptake at 800 ug/ml preincubated for 30 mins followed by […] addition and measured after 45 mins by fluorescence assay; type: cell-based; conditions: dose 800.0 µg/ml, time 75.0 min
[1] = Activation of glucose transporter in human Huh-7 cells assessed as increase in glucose uptake preincubated for 30 mins followed by 2-NDBG addition and measured after 45 mins by fluorescence assay

Compound	Activity (Huh-7)	fold change (FC) (Huh-7; filed as activator)	pEC50 [1]
O=c1cc(-c2ccc(O)cc2)oc2c([C@@H]3O[C@H](CO)[C@@H](O)[C@H](O)[C@H]3O[C@@H]3O[C@H](CO)[C@@H](O)[C@@H]3O)c(O)cc(O)c12	inactive	–	–
O=C(/C=C/c1ccc(O)cc1)O[C@@H]1O[C@H](CO)[C@@H](O)[C@H](O)[C@H]1O	–	2	5.11
O=c1cc(-c2ccc(O)c(O)c2)oc2c([C@@H]3O[C@H](CO)[C@@H](O)[C@H](O)[C@H]3O[C@@H]3O[C@H](CO)[C@@H](O)[C@@H]3O)c(O)cc(O)c12	inactive	–	–
O=C(O)/C=C\c1ccc(O[C@@H]2O[C@H](CO)[C@@H](O)[C@H](O)[C@H]2O)cc1	inactive	–	–
O=c1cc(-c2ccc(O)cc2)oc2cc(O)c([C@@H]3O[C@H](CO)[C@@H](O)[C@H](O)[C@H]3O[C@@H]3O[C@H](CO)[C@@H](O)[C@H](O)[C@H]3O)c(O)c12	inactive	–	–
CC(/C=C/C(=O)O)=C\C=C\C[C@H](O[C@@H]1O[C@H](CO)[C@@H](O)[C@H](O)[C@H]1O)[C@H](C)CC(=O)O	inactive	–	–
O=C1OC[C@H]2O[C@@](CO)(O[C@H]3O[C@H](COC(=O)[C@H]4[C@H]1[C@@H](c1ccc(O)cc1)[C@@H]4c1ccc(O)cc1)[C@@H](O)[C@H](O)[C@H]3O)[C@@H](O)[C@@H]2O	inactive	–	–
